The first assay addresses Vascular endothelial growth factor receptor 2 (Mus musculus, UniProt P35918). Nature of the assay: Inhibitory activity against vascular endothelial growth factor receptor 2 (FLK1).
Chain of Vascular endothelial growth factor receptor 2 (P35918 whole entry): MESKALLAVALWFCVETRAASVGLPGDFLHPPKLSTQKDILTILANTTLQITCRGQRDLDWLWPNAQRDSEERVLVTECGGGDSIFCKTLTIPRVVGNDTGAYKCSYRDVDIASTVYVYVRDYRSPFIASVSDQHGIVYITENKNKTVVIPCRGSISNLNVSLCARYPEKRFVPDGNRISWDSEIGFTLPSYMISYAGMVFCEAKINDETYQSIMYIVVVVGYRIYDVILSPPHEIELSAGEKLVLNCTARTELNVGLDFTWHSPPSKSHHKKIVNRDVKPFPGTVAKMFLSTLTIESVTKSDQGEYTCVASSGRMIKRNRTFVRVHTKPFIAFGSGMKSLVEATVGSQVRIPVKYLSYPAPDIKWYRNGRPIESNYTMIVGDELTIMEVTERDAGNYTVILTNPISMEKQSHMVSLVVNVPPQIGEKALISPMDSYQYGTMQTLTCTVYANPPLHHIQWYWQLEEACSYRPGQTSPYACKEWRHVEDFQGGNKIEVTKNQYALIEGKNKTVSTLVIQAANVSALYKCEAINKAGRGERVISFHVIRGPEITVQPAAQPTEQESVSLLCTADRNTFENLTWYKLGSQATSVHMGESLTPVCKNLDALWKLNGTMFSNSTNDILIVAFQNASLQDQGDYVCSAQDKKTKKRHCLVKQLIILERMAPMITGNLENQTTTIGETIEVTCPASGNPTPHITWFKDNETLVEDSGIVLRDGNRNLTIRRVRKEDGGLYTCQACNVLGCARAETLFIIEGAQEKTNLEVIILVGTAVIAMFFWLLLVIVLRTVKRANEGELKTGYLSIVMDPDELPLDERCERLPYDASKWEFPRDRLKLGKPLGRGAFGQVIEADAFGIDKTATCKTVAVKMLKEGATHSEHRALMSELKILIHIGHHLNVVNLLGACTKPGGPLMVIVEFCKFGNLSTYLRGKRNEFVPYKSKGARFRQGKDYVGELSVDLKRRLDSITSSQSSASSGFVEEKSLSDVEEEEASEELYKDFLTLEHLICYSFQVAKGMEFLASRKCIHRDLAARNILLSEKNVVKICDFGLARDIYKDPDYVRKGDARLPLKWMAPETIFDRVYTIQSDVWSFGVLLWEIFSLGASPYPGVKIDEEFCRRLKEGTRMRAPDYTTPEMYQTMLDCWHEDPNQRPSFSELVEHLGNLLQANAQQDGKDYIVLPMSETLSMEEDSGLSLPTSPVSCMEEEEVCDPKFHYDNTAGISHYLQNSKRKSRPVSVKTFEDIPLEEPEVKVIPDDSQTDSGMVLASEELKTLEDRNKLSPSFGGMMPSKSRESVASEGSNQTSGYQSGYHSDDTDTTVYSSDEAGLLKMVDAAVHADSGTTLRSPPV
`O=C1Nc2ccccc2/C1=C\c1cc(Br)cs1` had an IC50 of 1000 µM.

In turn, `CCc1ccc(/C=C2/C(=O)Nc3ccccc32)s1` gave an IC50 of 3.39 µM.

In turn, `Cn1cc(Cl)c(/C=C2/C(=O)Nc3ccccc32)n1` showed an IC50 of 1000 µM.

`CC(C)c1cc(/C=C2/C(=O)Nc3ccccc32)cc(C(C)C)c1O` showed an IC50 of 8.51 µM.

For the compound `O=C1Nc2ccccc2/C1=C\c1ccc(N2CCCC2)cc1`, the IC50 was 3.02 µM.

As to `CCOC(=O)c1c(C)[nH]c(/C=C2/C(=O)Nc3ccccc32)c1C`, the midpoint of inhibition, the IC50, lay at 0.0708 µM.

As to `COc1ccc(/C=C2/C(=O)Nc3ccccc32)cc1C(C)(C)C`, the midpoint of inhibition, the IC50, lay at 1000 µM.

Compound `O=C1Nc2ccccc2/C1=C\c1ccc(O)cc1` showed an IC50 of 2.69 µM.

In turn, `CN(C)c1ccc(/C=C2/C(=O)Nc3cc(F)ccc32)cc1` showed an IC50 of 4.57 µM.

Turning to `Cc1cc(C)c(/C=C2/C(=O)Nc3cc(F)ccc32)[nH]1`, the IC50 is 0.708 µM.

In the case of `Cc1c[nH]c(/C=C2/C(=O)Nc3ccccc32)c1C`, the IC50 was 2.69 µM.

The compound `CN(C)c1ccc(/C=C2/C(=O)Nc3ccccc32)cc1` had an IC50 of 0.794 µM.

As to `O=C1Nc2ccccc2/C1=C\c1ccco1`, it took 1000 µM to reach half-maximal inhibition (IC50).

Compound `C/C(=C1\C(=O)Nc2ccccc21)c1ccc(N2CCCCC2)cc1` gave an IC50 of 1000 µM.

Compound `O=CN1CCN(c2ccc(/C=C3\C(=O)Nc4ccccc43)cc2)CC1` had an IC50 of 5.13 µM.

Compound `CCc1c(C)[nH]c(/C=C2/C(=O)Nc3ccccc32)c1C` gave a half-inhibitory concentration (IC50) of 1000 µM.

Consider `O=C1Nc2ccccc2/C1=C\c1ccc(Br)cc1`, for which the IC50 was 1000 µM.

In the case of `COc1ccc(/C=C2/C(=O)Nc3ccccc32)cc1`, the IC50 was 7.59 µM.

`CN1C(=O)/C(=C/c2ccc(Br)cc2)c2ccccc21` gave an IC50 of 1000 µM.

Consider `Cc1c[nH]c(/C=C2/C(=O)Nc3ccccc32)c1CCC(O)O`, for which the IC50 is 0.398 µM.

`CCc1c(/C=C2/C(=O)Nc3ccccc32)[nH]c(C)c1C`: half-maximal inhibition (IC50) required 0.141 µM.

As to `Cn1cccc1/C=C1/C(=O)Nc2ccccc21`, half-maximal inhibition (IC50) required 20.4 µM.

On to `O=C1Nc2ccccc2/C1=C\c1n[nH]cc1Cl`, for which half-maximal inhibition (IC50) required 7.41 µM.

For the compound `O=C1Nc2ccccc2/C1=C\c1ccc(N2CCOCC2)cc1`, 2.51 µM corresponded to half-maximal inhibition (IC50).

For the compound `CC(C)(C)c1cc(/C=C2/C(=O)Nc3ccccc32)cc(Br)c1O`, the midpoint of inhibition, the IC50, lay at 46.8 µM.

The compound `O=C1Nc2cc(F)ccc2/C1=C\c1ccc[nH]1` had an IC50 of 0.708 µM.

With `CN(C)c1ccc(/C=C2/C(=O)N(C)c3ccccc32)cc1`, the IC50 was 22.4 µM.

In the case of `CCOC(=O)c1c[nH]c(/C=C2/C(=O)Nc3ccccc32)c1C`, the IC50 is 0.182 µM.

The compound `CC(C)(C)c1cc(/C=C2/C(=O)Nc3ccccc32)cc(C(C)(C)C)c1O` gave an IC50 of 8.32 µM.

`O=C1Nc2ccccc2/C1=C\c1ccc(N2CCCCC2)cc1`: the IC50 was 4.47 µM.

As for `CSc1ccc(/C=C2/C(=O)Nc3ccccc32)s1`, the 50% inhibitory concentration (IC50) is 2.34 µM.

Consider `COc1ccc(/C=C2\C(=O)Nc3ccc(Cl)cc32)cc1C(C)(C)C`, for which the IC50 was 1000 µM.

`CSc1ccc(/C=C2\C(=O)Nc3cccc(C)c32)s1` showed an IC50 of 1000 µM.

Regarding `COc1c(Br)cc(/C=C2\C(=O)Nc3ccc(Cl)cc32)cc1C(C)(C)C`, inhibition was half-maximal at 1000 µM (IC50).

On to `O=C1Nc2ccc(Br)cc2/C1=C/c1ccc(N2CCOCC2)cc1`, for which the IC50 was 50.1 µM.

On to `O=C1Nc2ccc([N+](=O)[O-])cc2/C1=C/c1ccc[nH]1`, for which the half-inhibitory concentration (IC50) is 1000 µM.

Compound `O=CN1CCN(c2ccc(/C=C3\C(=O)Nc4ccc(Br)cc43)cc2)CC1` gave an IC50 of 100 µM.

The target in the next assay is Human immunodeficiency virus type 1 protease (Human immunodeficiency virus 1, UniProt Q72874). Nature of the assay: Inhibitory activity against HIV-1 protease.
`CC(C)(C)OC(=O)N[C@@H](Cc1ccccc1)[C@@H](O)C[C@@H](Cc1ccccc1)C(=O)N[C@@H]1c2ccccc2OC[C@H]1O` showed an IC50 of 0.00018 µM.

`CC(C)(C)OC(=O)N[C@@H](Cc1ccccc1)[C@@H](O)C[C@@H](Cc1ccccc1)C(=O)N[C@@H]1c2ccccc2[C@@H](O)[C@H]1O` showed an IC50 of 0.0001 µM.

As for `Cc1ccc(C[C@H](C[C@H](O)[C@H](Cc2ccccc2)NC(=O)OC(C)(C)C)C(=O)N[C@@H]2c3ccccc3C[C@H]2O)cc1`, the IC50 is 0.00029 µM.

`CC(C)(C)OC(=O)N[C@@H](Cc1ccccc1)[C@@H](O)C[C@@H](CSc1ccccc1)C(=O)N[C@@H]1c2ccccc2C[C@H]1O` showed an IC50 of 0.00025 µM.

On to `CC(C)(C)OC(=O)N[C@@H](Cc1ccccc1)[C@@H](O)C[C@@H](Cc1ccccc1)C(=O)N[C@H]1CCc2ccccc21`, for which the IC50 is 0.0343 µM.

`CC(C)(C)OC(=O)N[C@@H](Cc1ccccc1)[C@@H](O)C[C@@H](Cc1ccc(C(F)(F)F)cc1)C(=O)N[C@@H]1c2ccccc2C[C@H]1O`: half-maximal inhibition (IC50) was put at 0.00026 µM.

Take `CC(C)(C)OC(=O)N[C@@H](Cc1ccccc1)[C@@H](O)C[C@@H](Cc1ccccc1)C(=O)N[C@@H]1c2ccccc2CC[C@H]1O`: the IC50 is 0.0007 µM.

As to `CC(C)(C)OC(=O)N[C@@H](Cc1ccccc1)[C@@H](O)C[C@@H](Cc1ccc(N)cc1)C(=O)N[C@@H]1c2ccccc2C[C@H]1O`, the IC50 is 0.00031 µM.

`CC(C)(C)OC(=O)N[C@@H](Cc1ccccc1)[C@@H](O)C[C@@H](Cc1ccccc1)C(=O)N[C@@H]1c2ccccc2C[C@H]1O` gave an IC50 of 0.00025 µM.

As for `CC(C)(C)OC(=O)N[C@@H](Cc1ccccc1)[C@@H](O)C[C@@H](CC(=O)c1ccccc1)C(=O)N[C@@H]1c2ccccc2C[C@H]1O`, it took 0.00542 µM to reach half-maximal inhibition (IC50).

Turning to `CC(C)(C)OC(=O)N[C@@H](Cc1ccccc1)[C@@H](O)C[C@@H](Cc1ccc(O)cc1)C(=O)N[C@@H]1c2ccccc2C[C@H]1O`, 0.00016 µM corresponded to half-maximal inhibition (IC50).

For `CC(C)(C)OC(=O)N[C@@H](Cc1ccccc1)[C@@H](O)CCC(=O)N[C@@H]1c2ccccc2C[C@H]1O`, the IC50 is 2.94 µM.

The compound `CC(C)(C)OC(=O)N[C@@H](Cc1ccccc1)[C@@H](O)C[C@@H](Cc1ccc(C(C)(C)C)cc1)C(=O)N[C@@H]1c2ccccc2C[C@H]1O` showed an IC50 of 0.00017 µM.

`CC(C)(C)OC(=O)N[C@@H](Cc1ccccc1)[C@@H](O)C[C@@](C)(Cc1ccccc1)C(=O)N[C@@H]1c2ccccc2C[C@H]1O` had a 50% inhibitory concentration (IC50) of 0.00771 µM.

`C=CC[C@H](C[C@H](O)[C@H](Cc1ccccc1)NC(=O)OC(C)(C)C)C(=O)N[C@@H]1c2ccccc2C[C@H]1O`: half-maximal inhibition (IC50) required 0.0275 µM.

Consider `COC(=O)[C@@H]1Cc2ccccc2[C@H]1NC(=O)[C@H](Cc1ccccc1)C[C@H](O)[C@H](Cc1ccccc1)NC(=O)OC(C)(C)C`, for which the midpoint of inhibition, the IC50, lay at 0.0662 µM.

Regarding `CC(C)(C)OC(=O)N[C@@H](Cc1ccccc1)[C@@H](O)C[C@@H](Cc1ccncc1)C(=O)N[C@@H]1c2ccccc2C[C@H]1O`, the IC50 was 0.00053 µM.

As to `CC(C)(C)OC(=O)N[C@@H](Cc1ccccc1)[C@@H](O)C[C@@H](Cc1c(F)c(F)c(F)c(F)c1F)C(=O)N[C@@H]1c2ccccc2C[C@H]1O`, the IC50 was 0.0006 µM.

For the compound `CC(C)(C)OC(=O)N[C@@H](Cc1ccccc1)[C@@H](O)C[C@@H](Cc1ccc([N+](=O)[O-])cc1)C(=O)N[C@@H]1c2ccccc2C[C@H]1O`, the IC50 was 0.00027 µM.

On to `CC(C)(C)OC(=O)N[C@@H](Cc1ccccc1)[C@@H](O)C[C@@H](C/C=C/c1ccccc1)C(=O)N[C@@H]1c2ccccc2C[C@H]1O`, for which half-maximal inhibition (IC50) required 0.00023 µM.

The compound `CC(C)(C)OC(=O)N[C@@H](Cc1ccccc1)[C@@H](O)C[C@@H](Cc1ccc(I)cc1)C(=O)N[C@@H]1c2ccccc2C[C@H]1O` gave an IC50 of 0.000719 µM.

Take `CC(C)(C)OC(=O)N[C@@H](Cc1ccccc1)[C@@H](O)C[C@@H](Cc1ccccc1)C(=O)N[C@@H]1C=CC[C@H]1O`: the IC50 is 0.00953 µM.

The compound `CC(C)(C)OC(=O)N[C@@H](Cc1ccccc1)[C@@H](O)C[C@@H](CCCc1ccccc1)C(=O)N[C@@H]1c2ccccc2[C@@H](O)[C@H]1O` gave an IC50 of 0.00019 µM.

As for `CC(C)(C)OC(=O)N[C@@H](Cc1ccccc1)[C@@H](O)C[C@@H](Cc1ccccc1)C(=O)N[C@@H]1CCCC[C@H]1O`, the IC50 is 0.122 µM.

`CC(C)(C)OC(=O)N[C@@H](Cc1ccccc1)[C@@H](O)C[C@@H](Cc1ccccc1)C(=O)N[C@H]1c2ccccc2OC[C@@H]1O` had an IC50 of 0.0406 µM.

The term IC50 denotes the midpoint of a concentration-inhibition curve. A high value points to a need for much substance.

For the origin of these results see ChEMBL document CHEMBL1133609, “DoMCoSAR: a novel approach for establishing the docking mode that is consistent with the structure-activity relationship. Application to HIV-1 protease inhibitors and VEGF receptor tyrosine kinase inhibitors” (J Med Chem, 2000).
